Measurements: patent US6346633B1, “Anti-tumuor agents” (AstraZeneca AB, priority 1998, dated 2002)

How the values were obtained:
[1] = test system: T18 murine breast cancer cells; experiment: Test (b): growth inhibition of T18 cells in culture under oxic conditions (MTT endpoint); format: cell-based; conditions: Mus musculus, 2 hours treatment, 90% air and 10% CO2, grown on for 6 days
Protocol: (b) An in vitro assay which determines the ability of a test compound to inhibit the growth of T18 murine breast cancer cells in cell culture under oxic conditions. The cells were grown in monolayer in 96 well plates and treated with compounds for 2 hours under an atmosphere of 90% air and 10% CO2. The cells were then grown on for 6 days at which time the extent of proliferation was assessed using a 3-(4,5-dimethylthiazol-2-yl)-2,5-diphenyltetrazolium bromide (MTT) endpoint. The test is similar to that described in J. Immunological Methods, 1983, 65, 55-63. The detailed methodology was as follows.
T18 murine breast tumour cells (derived from a spontaneous mammary tumour in the Balb/c mouse colony at Zeneca Pharmaceuticals, Mereside, Macclesfield, UK) were harvested from an exponentially growing monolayer culture. The cells were counted, diluted in RPMI 1640 culture medium (Gibco BRL, Life Technologies, Paisley, UK; supplemented with 15% foetal calf serum, glutamine, pyruvate, penicillin and streptomycin), and transferred to 96 well plates at 500 cells per 50 μl per well. […] The supernatant culture medium containing excess MTT was removed and DMSO (100 μl) was added to solubilise the formazan, the concentration of which was measured by determining the optical density at 540 nm. […]

[2] = test system: T18 murine breast tumours; experiment: Test (d): in vivo growth delay of T18 tumours; design: species or system Balb/c mice; conditions: single dose of approximately 50 mg/kg intraperitoneally
From the text: (d) An in vivo assay in a group of Balb/c mice which determines the ability of a test compound to delay the growth of T18 murine breast tumours. The detailed methodology was as follows:
T18 murine breast tumour tissue was routinely maintained by animal to animal passage. To prepare a batch of tumours for an experiment, tumour tissue was removed from several donor Balb/c mice and placed in saline. Outer tissue was removed and healthy looking regions of tumour were cut into approximately 1 mm pieces and implanted subcutaneously by trocar into the left flanks of anaesthetised female Balb/c mice. After 2-3 weeks, most of the implants had grown to approximately 8 mm in diameter. The animals were placed randomly into groups of 6-7, rejecting any with very large, or small, tumours. Each test compound was dissolved in DMSO and diluted with Cremophor EL followed by saline, to give a 1:1:3 mixture of DMSO, Cremophor EL and saline. Each test compound was administered by the intraperitoneal route as a single bolus dose (0.1 ml per 10 g body weight of each animal). Control animals received vehicle alone. All mice were weighed daily and the dimensions (length and width) of each tumour were measured every 2-3 days using vernier calipers. […] Growth curves were constructed and the effect of treatment was assessed using a growth delay endpoint.

[3] = test system: spheroidal aggregates of EMT6 murine breast cancer cells; experiment: Test (c): growth inhibition of spheroidal aggregates of EMT6 cells in oxygenated culture medium; format: cell-based; conditions: Mus musculus, 2 hours treatment, stasis of spheroid growth during 2-3 weeks, read-out: stasis ED50
Protocol: (c) An in vitro assay which determines the ability of a test compound to inhibit the growth in an oxygenated culture medium of spheroidal aggregates (˜400 microns in diameter) of EMT6 murine breast cancer cells. As the oxygen diffusion distance through tissue is approximately 120-150 microns, such spheroids have a chronically hypoxic central population of cells and a well oxygenated outer layer of cells. The multicellular spheroids were treated with test compounds for 2 hours as a well oxygenated suspension culture. The spheroids were subsequently washed free of test compound and selected spheroids were transferred to static culture so that the effect of treatment on volume growth could be measured. […]
EMT6 murine breast cells (obtained from P. R. Twentyman, MRC Oncology and Radiotherapeutics Unit, Cambridge, UK) were harvested from exponentially growing monolayer cultures and approximately 1×10^6 cells were used to inoculate a 500 ml spinner culture vessel containing Eagles minimal essential medium (200 ml; supplemented with 10% foetal calf serum, glutamate, non-essential amino acids, penicillin and streptomycin). […] The area of each spheroid was measured using an image analyser and the 24-well plates were transferred to a CO2 incubator at 37° C. The spheroids were then re-measured every 2-3 days for up to 21 days, with fresh culture medium (250 μl) being added to each well every 3 days. […]

COCCC1=C(C)C(=O)C(C)=C(C(C)(C)CC(=O)Oc2ccc(N(CCCl)CCCl)cc2)C1=O [Example 2, 4-[bis(2-chloroethyl)amino]phenyl 3-[2-(2-methoxyethyl)-3,5-dimethyl-1,4-benzoquinonyl]-3-methylbutyrate]
IC50 [1]: 4.8 µM | growth delay [2]: approximately 12 days | EC50 [3]: ~6 µM
